Measured values as given in ChEMBL document CHEMBL3507680, “University of Dundee, Gates Library screen for HepG2 cell viability”.

Test: Human HepG2 cell viability assay in 384 well format
Type: toxicity, cell-based
Set-up: dose 125 nL, time 70.5 hour; cytotoxicity at 70.5 h: concentration not given beside the values
Settings: HepG2 cells, read-out: Inhibition

Compound	cytotoxicity at 70.5 h [%]
CC1CCN(CCNC(=O)c2ccn(-c3ccc(F)cc3)n2)CC1	-5.04
Cc1csc(N2CCN(C(=O)Cc3cccs3)CC2)n1	-2.84
CCOc1cc(F)ccc1NC(=O)N(C)Cc1cnn(C)c1	-5.78
CCNC(=O)NCCCn1nc2ccccn2c1=O	-9.28
Cc1ccn2ncc(C(=O)N3CCCC(n4ccnc4C)C3)c2n1 (stereo unspecified)	-2.96
CC(Cn1cccn1)NCc1csc(-c2ncccn2)n1 (stereo unspecified)	3.56
c1ccc(-c2noc(CCCN3CCCC3Cn3cccn3)n2)cc1 (stereo unspecified)	10.7
CC(Cn1cccn1)NCc1csc(COc2ccccc2)n1 (stereo unspecified)	-2.25
c1ccc(-c2nc(CN3CCCC(Cn4cncn4)C3)cs2)cc1 (stereo unspecified)	-6.56
CC(O)CN1CCC(CNCc2cccc(C(F)(F)F)c2)CC1 (stereo unspecified)	2.27
Cc1nnc(CN2CCCC(c3noc(C4CC4)n3)C2)o1 (stereo unspecified)	-4.3
CN1CCCN(C(=O)NCCNc2ncccn2)CC1	17.7
CC(C)(C)c1nc(CN2CCCC(c3noc(C4CC4)n3)C2)no1 (stereo unspecified)	-4.22
c1csc(-c2noc(CCCN3CCCC3Cn3cncn3)n2)c1 (stereo unspecified)	2.46
c1coc(-c2nc(CN3CCCC(Cn4cncn4)C3)cs2)c1 (stereo unspecified)	20.4
Cc1cccc(OCC(=O)N2CCN(C3CCOC3=O)CC2)c1C (stereo unspecified)	-2.32
CCCc1ccc(S(=O)(=O)NC(=O)CCC2CCCO2)cc1 (stereo unspecified)	3.11
COc1ccc2cc(CNCc3c(C)nn(C)c3N(C)C)ccc2c1	23
Cc1nc(-c2ccccc2)n(CC(=O)NC(C)(C)C)n1	1.44
CCC(C)(C)NC(=O)Cn1nc(C)nc1-c1ccccc1	-0.158
Cc1cccc(-c2nc(C)nn2CC(=O)NCC(C)C)c1	5.13
O=C1COc2cc(C(=O)N3CCCC(n4cccn4)C3)ccc2N1 (stereo unspecified)	-1.96
Cc1ccc(-c2nc(CN3CCCC(Cn4cncn4)C3)cs2)o1 (stereo unspecified)	6.82
O=C(NCCOC1CCCCC1)c1ccc(-c2ccco2)[nH]c1=O	15.1
Cc1csc(C2CCCN(C(=O)c3c[nH]c(C)n3)C2)n1 (stereo unspecified)	-1.13
CCc1csc(C2CCCN(C(=O)c3cc(Cl)c[nH]3)C2)n1 (stereo unspecified)	2.15

Compound	cytotoxicity at 70.5 h [%]
Cc1ccc(-c2nnc(CN3CCc4nn(C)c(=O)cc4C3)o2)cc1	3.35
CCc1nc(C2CCCN2CCCc2nc3ccccc3o2)no1 (stereo unspecified)	-0.084
O=C(NCC(F)(F)F)c1ccc(-c2ccco2)[nH]c1=O	-4.71
COc1cc(C(=O)N2CCCC(c3cc(C)[nH]n3)C2)ccc1C (stereo unspecified)	19.1
CCOCC(O)CN1CCN(C(=O)C(C)(C)CC)CC1 (stereo unspecified)	18.6
COCc1ccccc1C(=O)N1CCCC(c2cc(C)[nH]n2)C1 (stereo unspecified)	26.2
O=C(NCc1ccc(-n2cncn2)nc1)c1cc(Cl)c2c(c1)OCCO2	-3.48
COc1ccc(CC(=O)Nc2cccnc2N2CCCC2)cc1OC	-1.14
COc1ccc(CNC(=O)Nc2cccnc2OC)cc1O	22.7
O=C(Cc1ccc2c(c1)OCCO2)NCc1ccc(-n2cncn2)nc1	-2.42
Cc1ccccc1OCCC(=O)NC(C)c1nnc2n1CCCCC2 (stereo unspecified)	-2.91
Cc1cnn(CC2CN(Cc3nc(C)no3)CCO2)c1 (stereo unspecified)	-1.3
CCCN1CCN(CC(O)c2ccc(OC(F)(F)F)cc2)CC1 (stereo unspecified)	-0.084
N#Cc1ccccc1OCCN1CCCC1Cn1cncn1 (stereo unspecified)	3.66
COCCN1CCN(CC(O)c2ccc(OC(F)(F)F)cc2)CC1 (stereo unspecified)	-2.07
Cc1nn(C)c(C)c1C1CCCN1CC(=O)NCc1ccco1 (stereo unspecified)	7.36
CC(C)c1nc2n(n1)CC(NCc1ncc(C(C)(C)C)o1)CC2 (stereo unspecified)	0.95
O=C(COCCc1ccccc1)N1CCCC(n2cncn2)C1 (stereo unspecified)	1.67
COc1ccc(Cl)cc1C(=O)N1CCCC(c2cc(C)[nH]n2)C1 (stereo unspecified)	0.303
c1cnnc(N2CCCC(NCc3cccc4c3OCCO4)C2)c1 (stereo unspecified)	6.38
Cc1nn(C)c(C)c1NC(=O)CN1CCCC1c1c(C)nn(C)c1C (stereo unspecified)	-3.45
OC(CN1CCCCCCC1)c1ccc(OC(F)(F)F)cc1 (stereo unspecified)	7.33
Cc1ccc(N2CCCC(NCc3cccc4c3OCO4)C2)nn1 (stereo unspecified)	-0.527
O=C(CCCOCc1ccccc1)N1CCCC(n2cncn2)C1 (stereo unspecified)	-1.64
Fc1ccccc1OCCN1CCCCC1Cn1cncn1 (stereo unspecified)	2.55
CN(Cc1ccccn1)C1CCCN(c2cccnn2)C1 (stereo unspecified)	3.01

Compound	cytotoxicity at 70.5 h [%]
CCc1nccn1C1CCCN(C(=O)C2=NN(C)C(=O)CC2)C1 (stereo unspecified)	-8.58
CC(C)Cc1noc(CN2CCCC2c2noc(C3CC3)n2)n1 (stereo unspecified)	-10.4
Cc1nc(C)n(C2CCCN(C(=O)c3csc(CC(C)C)n3)C2)n1 (stereo unspecified)	-13.9
COc1cccc(COCC(=O)N2CCCC(c3ccn[nH]3)C2)c1 (stereo unspecified)	20.5
CCCc1noc(CN2CCCC2c2noc(C3CC3)n2)n1 (stereo unspecified)	-4.28
COc1cc(C(=O)N2CCCC(CNS(C)(=O)=O)C2)ccc1C (stereo unspecified)	15.8
CS(=O)(=O)NCC1CCCN(C(=O)c2ccc(F)c(F)c2)C1 (stereo unspecified)	-1.98
Cn1cnc2c1CCN(CCS(=O)(=O)c1ccccc1)C2	-17
Cc1nc(C2CCCN(C(=O)COCc3ccccc3Cl)C2)no1 (stereo unspecified)	-7.76
Cc1nc(C)n(CC2CN(CCCOc3ccccc3C)CCO2)n1 (stereo unspecified)	11.3
COc1c(C2CCCN2Cc2c(C)noc2C)c(C)nn1C (stereo unspecified)	-5.56
O=C(C1CCN(c2snc3ccccc23)CC1)N1CCCCCC1	28.1
Cc1nn(C)c(N(C)C)c1CNCc1ccccc1CN(C)C	18.8
CCc1nnc(CNCC2CCN(CC(O)c3ccccc3)CC2)o1 (stereo unspecified)	15.4
CC(OCC1CC1)C(=O)N1CCCN(Cc2cnn(C)c2)CC1 (stereo unspecified)	24.6
CC(OCC1CC1)C(=O)N1CCCN(Cc2nccn2C)CC1 (stereo unspecified)	-11.2
COc1cc(C(=O)NC(CC(=O)O)c2cccs2)cc(Cl)c1OC (stereo unspecified)	-8.1
Cc1noc(C)c1CNCC1CCN(CC(O)c2ccccc2)CC1 (stereo unspecified)	2.35
Cc1cn2nc(N3CCCN(Cc4noc(C)n4)CC3)sc2n1	-4.93
CN(C)CC1CN(c2ncnc3[nH]ccc23)CCO1 (stereo unspecified)	5.61
Cc1ccc(NC(=O)N2CCN(Cc3noc(C4CC4)n3)CC2)cc1	27.4
Cc1cc(C)cc(NS(=O)(=O)c2cc3c(c(C(=O)O)c2)OCCO3)c1	-5.38
CCc1cccc(NS(=O)(=O)c2cc3c(c(C(=O)O)c2)OCCO3)c1	4.16
Cc1ccn2cc(C(=O)N3CCCC3c3c(C)nn(C)c3C)nc2c1 (stereo unspecified)	-7.44
Cc1cc(C(=O)N2CCc3nnc(N)cc3C2)c(C)n1-c1cccnc1	-1.23
O=C(C1CCC1)N1CCN(c2snc3ccccc23)CC1	44.7

Compound	cytotoxicity at 70.5 h [%]
CC(C)(O)CN1CCN(C(=O)c2sccc2C2CC2)CC1	-6.03
COc1ccc(COCC(O)CNC(=O)c2cnc(C)cn2)cc1 (stereo unspecified)	-8.25
CC(C)n1ccnc1CN1CCCN(C(=O)CC2C=CCC2)CC1 (stereo unspecified)	31.4
Cc1cnn(CCNCc2ccccc2OCc2cccnc2)c1	-3.61
CC(NCc1cccnc1)c1ccc(OCC(=O)NC2CC2)cc1 (stereo unspecified)	-8.83
Cc1csc(N2CCCN(Cc3noc(C)n3)CC2)n1	-1.5
CCn1ncc2c1CCCC2NCc1cccc2c1OCCO2 (stereo unspecified)	-13.8
Cc1nc(CN2CCCN(C(=O)C(C)OCC3CC3)CC2)cs1 (stereo unspecified)	-8.36
CC(=O)Nc1nc(C(=O)NCc2ccc(N3CCCCCC3)nc2)cs1	7.57
Cc1ccc(-c2nc(CN3CCN(S(=O)(=O)N(C)C)CC3)cs2)o1	1.51
CCNC(=O)C1CCN(Cc2csc(-c3ccc(C)o3)n2)CC1	0.934
CCn1cnnc1CNC(=O)c1ccc(Cl)cc1F	-4.7
CC(NC(=O)NCCCN(C)S(C)(=O)=O)c1cccc(Cl)c1 (stereo unspecified)	-7.23
CC(NC(=O)NCCCN(C)S(C)(=O)=O)c1ccncc1 (stereo unspecified)	-3.33
CC(=O)c1cccc(S(=O)(=O)N2CSCC2C(=O)NCC(F)(F)F)c1 (stereo unspecified)	5.48
O=C(NCC(F)(F)F)C1CSCN1S(=O)(=O)c1ccc(F)cc1 (stereo unspecified)	-4.65
O=C(Cc1csc(-c2ccco2)n1)N1CCN(c2cnccn2)CC1	1.22
CC(=O)Nc1nc(C(=O)Nc2ccc(N3CCCCC3)nc2)cs1	13.7
COC(=O)C(c1cc(F)ccc1F)N(C)C(=O)c1ccnc(C)n1 (stereo unspecified)	1.49
c1ccc(Cn2ccnc2CN2CCOC(Cn3cccn3)C2)cc1 (stereo unspecified)	2.05
Cn1cc(C(=O)NCC2CCN(C(=O)NCC(F)(F)F)CC2)cn1	2.26
Cc1cccc(CNC2CCCc3c2cnn3Cc2ccccc2)c1 (stereo unspecified)	-7.85
Cc1nn(C)c(C)c1CNCc1ccc(N2CCOCC2)nc1	3.85
